# Experimental data from patent US9850283B2, “Macrocyclic inhibitors of the PD-1/PD-L1 and CD80(B7-1)/PD-L1 protein/protein interactions” (BRISTOL-MYERS SQUIBB COMPANY, priority 2013, dated 2017).
# Like-named read-outs stand apart in the source and are kept apart here. Positions of bridges follow the written chain, without caps; N, C: chain ends. Non-standard residues stand in square brackets, D forms with d. Residues, ends and D or L forms follow the SMILES beside them. *: point of attachment. Ala(indol-4-yl) = N[C@@H](Cc1cccc2[nH]ccc12)C(=O)O; Phe(3,4,5-F3) = N[C@@H](Cc1cc(F)c(F)c(F)c1)C(=O)O; Phe(3-CF3) = N[C@@H](Cc1cccc(C(F)(F)F)c1)C(=O)O; NHTrityl = c1ccc(C(N*)(c2ccccc2)c2ccccc2)cc1; Phe(4-CH2NH2) = NCc1ccc(C[C@H](N)C(=O)O)cc1; NMe2Nal = CN[C@@H](Cc1ccc2ccccc2c1)C(=O)O; Phe(3-F) = N[C@@H](Cc1cccc(F)c1)C(=O)O; d(cisHyp) = O=C(O)[C@H]1C[C@@H](O)CN1; Phe(2-Me) = Cc1ccccc1C[C@H](N)C(=O)O; Hyp = O=C(O)[C@@H]1C[C@@H](O)CN1; NMeF = CN[C@@H](Cc1ccccc1)C(=O)O; dHyp = O=C(O)[C@H]1C[C@H](O)CN1; dNMeE = CN[C@H](CCC(=O)O)C(=O)O; NMeNle = CCCC[C@H](NC)C(=O)O; dPip = O=C(O)[C@H]1CCCCN1; NMeA = CN[C@@H](C)C(=O)O; Orn = NCCC[C@H](N)C(=O)O; Dab = NCC[C@H](N)C(=O)O; Sar = CNCC(=O)O
# Experiments:
# Human PD-L1/PD-1 = biological target: T1, Human PD-L1/PD-1 (Homo sapiens, UniProt Q9NZQ7); assay: HTRF PD-1-Ig/PD-L1-His binding assay (human PD-L1)
# T1 construct: made in house; host or cells: HEK293T
# T1 sequence (Q9NZQ7 with tags, fused parts or gaps): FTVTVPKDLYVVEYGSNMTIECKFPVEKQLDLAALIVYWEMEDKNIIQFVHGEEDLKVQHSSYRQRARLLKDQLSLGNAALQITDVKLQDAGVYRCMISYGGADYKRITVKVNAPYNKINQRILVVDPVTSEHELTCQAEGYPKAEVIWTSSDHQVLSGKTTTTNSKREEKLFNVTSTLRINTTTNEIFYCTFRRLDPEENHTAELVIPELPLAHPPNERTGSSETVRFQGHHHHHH
# In short: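 Steps: truncated PD-1-Ig and PD-L1-His fusions are incubated in dPBS containing 0.1% (w/v) BSA and 0.05% (v/v) Tween-20. Detection antibodies are then added (Eu cryptate anti-Ig at 1 nM final, APC anti-His at 20 nM final), and time-resolved FRET is measured.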
# [1] = biological target: T2, LK35.2-hPD-L1 cells / PE-labeled PD-1-Ig (Homo sapiens, UniProt Q9NZQ7); assay: LK35.2-hPD-L1 cell binding high-content screening assay; type: cell-based
# T2 construct: expressed in transfected cells; host or cells: LK35.2 mouse B cell line
# T2 sequence (Q9NZQ7 19-290): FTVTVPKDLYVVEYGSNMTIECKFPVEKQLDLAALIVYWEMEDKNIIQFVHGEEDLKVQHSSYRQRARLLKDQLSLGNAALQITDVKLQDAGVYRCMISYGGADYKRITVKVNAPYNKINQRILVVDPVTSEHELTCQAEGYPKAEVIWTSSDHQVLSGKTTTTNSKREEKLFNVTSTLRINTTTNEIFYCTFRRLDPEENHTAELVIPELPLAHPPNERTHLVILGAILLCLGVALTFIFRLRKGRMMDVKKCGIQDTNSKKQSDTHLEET
# In short: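 Fluorescent PD-1-Ig binding to PD-L1-expressing LK35.2 cells, imaged after washing. Conditions: 1 nM PE-PD-1-Ig, 37 °C, 1 h, RPMI with 10% fetal calf serum.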
# [2] = cluster symbol, read-out: HTRF IC50 cluster
# [3] = cell binding assay, cell line not given, cluster symbol, read-out: CBA IC50 cluster
# [4] = cluster symbol, cell line of CBA not given (LK35.2-hPD-L1 or 293T-hPD-L1), read-out: CBA IC50 cluster
Compound,IC50 (Human PD-L1/PD-1; [2]),"IC50 [1, 3]","IC50 [1, 4]","IC50 (Human PD-L1/PD-1; HTRF IC50 value, value given instead of cluster)","IC50 ([1]; CBA IC50 value, cell binding assay, cell line not given, value given instead of cluster)"
"CCCC[C@H]1C(=O)N2C[C@@H](O)C[C@@H]2C(=O)N[C@@H](CC(N)=O)C(=O)N[C@@H](C(C)C)C(=O)N(C)[C@@H](Cc2ccccc2)C(=O)N[C@@H](Cc2ccc(O)cc2)C(=O)N2CCCC[C@@H]2C(=O)N[C@@H](Cc2c[nH]c3ccccc23)C(=O)N[C@@H](Cc2ccc(O)cc2)C(=O)N[C@@H](CCCCN)C(=O)N[C@H](C(=O)NCC(N)=O)CSCC(=O)N[C@@H](Cc2cc(F)c(F)c(F)c2)C(=O)N(C)[C@@H](Cc2ccccc2)C(=O)N1C [Example 3591] ({CH2CO}-[Phe(3,4,5-F3)][NMeF][NMeNle][dHyp]NV[NMeF]Y[dPip]WYKCG-NH2; thioether N-13)",0.385 to 6.74 nM,0.158 to 4.71 nM,,,
CCCC[C@H]1C(=O)N(C)CC(=O)N[C@@H](CC(=O)O)C(=O)N[C@@H](C(C)C)C(=O)N(C)[C@@H](Cc2ccccc2)C(=O)N[C@@H](Cc2ccc(O)cc2)C(=O)N(C)CC(=O)N[C@@H](Cc2c[nH]c3ccccc23)C(=O)N[C@@H](Cc2ccc(O)cc2)C(=O)N[C@@H](CC(C)C)C(=O)N[C@H](C(=O)NCC(N)=O)CSCC(=O)N[C@@H](Cc2cccc3[nH]ccc23)C(=O)N(C)[C@@H](Cc2ccccc2)C(=O)N1C [Example 3103] ({CH2CO}-[Ala(indol-4-yl)][NMeF][NMeNle][Sar]DV[NMeF]Y[Sar]WYLCG-NH2; thioether N-13),> 30.5 nM,,> 74.3 nM,,
CCCC[C@H]1C(=O)N(C)CC(=O)N[C@@H](CC(=O)O)C(=O)N[C@@H](C(C)C)C(=O)N(C)[C@@H](Cc2ccccc2)C(=O)N[C@@H](Cc2ccc(CN)cc2)C(=O)N(C)CC(=O)N[C@@H](Cc2c[nH]c3ccccc23)C(=O)N[C@@H](Cc2ccc(O)cc2)C(=O)N[C@@H](CC(C)C)C(=O)N[C@H](C(=O)NCC(N)=O)CSCC(=O)N[C@@H](Cc2cccc(F)c2)C(=O)N(C)[C@@H](Cc2ccccc2)C(=O)N1C [Example 3124] ({CH2CO}-[Phe(3-F)][NMeF][NMeNle][Sar]DV[NMeF][Phe(4-CH2NH2)][Sar]WYLCG-NH2; thioether N-13),6.76 to 30.3 nM,,0.158 to 4.71 nM,,
CCCC[C@H]1C(=O)N(C)[C@@H](CCCC)C(=O)N[C@@H](CCCNC(=N)N)C(=O)N[C@H](C(=O)NCC(N)=O)CSCC(=O)N[C@@H](Cc2ccc(O)cc2)C(=O)N(C)[C@@H](C)C(=O)N[C@@H](CC(N)=O)C(=O)N2CCC[C@H]2C(=O)N[C@@H](Cc2cnc[nH]2)C(=O)N[C@@H](CCN)C(=O)N2C[C@H](O)C[C@H]2C(=O)N[C@@H](Cc2c[nH]c3ccccc23)C(=O)N[C@@H](CO)C(=O)N[C@@H](Cc2c[nH]c3ccccc23)C(=O)N1C [Example 5022] ({CH2CO}-Y[NMeA]NPH[Dab][Hyp]WSW[NMeNle][NMeNle]RCG-NH2; thioether N-14),6.76 to 30.3 nM,0.158 to 4.71 nM,,,
CCCC[C@H]1C(=O)N(C)[C@@H](CCCC)C(=O)N[C@@H](CCCNC(=N)N)C(=O)N[C@H](C(=O)NCC(N)=O)CSCC(=O)N[C@@H](Cc2ccccc2)C(=O)N(C)[C@@H](C)C(=O)N[C@@H](CC(N)=O)C(=O)N2CCC[C@H]2C(=O)N[C@@H](Cc2cnc[nH]2)C(=O)N[C@@H](Cc2cnc[nH]2)C(=O)N(C)CC(=O)N[C@@H](Cc2c[nH]c3ccccc23)C(=O)N[C@@H](CO)C(=O)N[C@@H](Cc2c[nH]c3ccccc23)C(=O)N1C [Example 6008] ({CH2CO}-F[NMeA]NPHH[Sar]WSW[NMeNle][NMeNle]RCG-NH2; thioether N-14),> 30.5 nM,> 74.3 nM,,,
CCCC[C@H]1C(=O)N(C)[C@@H](CCCC)C(=O)N[C@@H](CCCNC(=N)N)C(=O)N[C@H](C(=O)NCC(N)=O)CSCC(=O)N[C@@H](Cc2ccccc2)C(=O)N(C)[C@@H](C)C(=O)N[C@@H](CC(N)=O)C(=O)N2CCC[C@H]2C(=O)N[C@@H](CO)C(=O)N[C@@H](CC(C)C)C(=O)N(C)CC(=O)N[C@@H](Cc2c[nH]c3ccccc23)C(=O)N[C@@H](CO)C(=O)N[C@@H](Cc2c[nH]c3ccccc23)C(=O)N1C [Example 1088] ({CH2CO}-F[NMeA]NPSL[Sar]WSW[NMeNle][NMeNle]RCG-NH2; thioether N-14),6.76 to 30.3 nM,,4.78 to 72.9 nM,,
CCCC[C@H]1C(=O)N(C)[C@@H](CCCC)C(=O)N[C@@H](CCCNC(=N)N)C(=O)N[C@H](C(=O)NCC(N)=O)CSCC(=O)N[C@@H](Cc2ccccc2)C(=O)N(C)[C@@H](C)C(=O)N[C@@H](CC(N)=O)C(=O)N2CCC[C@H]2C(=O)N[C@@H](Cc2cnc[nH]2)C(=O)N[C@@H](CC(C)C)C(=O)N(C)CC(=O)N[C@@H](Cc2cccc(C(F)(F)F)c2)C(=O)N[C@@H](CO)C(=O)N[C@@H](Cc2c[nH]c3ccccc23)C(=O)N1C [Example 1018] ({CH2CO}-F[NMeA]NPHL[Sar][Phe(3-CF3)]SW[NMeNle][NMeNle]RCG-NH2; thioether N-14),> 30.5 nM,,> 74.3 nM,,
CCCC[C@H]1C(=O)N[C@@H](CCCNC(=N)N)C(=O)NC(C(=O)NCC(N)=O)CSCC(=O)N[C@@H](Cc2ccc(O)cc2)C(=O)N(C)[C@@H](C)C(=O)N[C@@H](CC(N)=O)C(=O)N2CCC[C@H]2C(=O)N[C@@H](Cc2cnc[nH]2)C(=O)N[C@@H](CC(C)C)C(=O)N2C[C@H](O)C[C@H]2C(=O)N[C@@H](Cc2c[nH]c3ccccc23)C(=O)N[C@@H](CO)C(=O)N[C@@H](Cc2c[nH]c3ccccc23)C(=O)N(C)[C@@H](CCOC)C(=O)N1C (stereo partly shown) [Example 9004],0.385 to 6.74 nM,4.78 to 72.9 nM,,,
CCCC[C@H]1C(=O)N(C)[C@@H](CCCC)C(=O)N[C@@H](CC(C)C)C(=O)N[C@H](C(=O)NCC(N)=O)CSCC(=O)N[C@@H](Cc2ccc(O)cc2)C(=O)N(C)[C@@H](C)C(=O)N[C@@H](CC(=O)O)C(=O)N2CCC[C@H]2C(=O)N[C@@H](Cc2cnc[nH]2)C(=O)N[C@@H](CCC(=O)O)C(=O)N2C[C@H](O)C[C@H]2C(=O)N[C@@H](Cc2c[nH]c3ccccc23)C(=O)N[C@@H](CO)C(=O)N[C@@H](Cc2c[nH]c3ccccc23)C(=O)N1C [Example 6026] ({CH2CO}-Y[NMeA]DPHE[Hyp]WSW[NMeNle][NMeNle]LCG-NH2; thioether N-14),0.385 to 6.74 nM,0.158 to 4.71 nM,,,
CCCC[C@H]1C(=O)N2C[C@H](O)C[C@@H]2C(=O)N[C@H](CC(=O)NC(c2ccccc2)(c2ccccc2)c2ccccc2)C(=O)N[C@@H](C(C)C)C(=O)N(C)[C@@H](Cc2ccccc2)C(=O)N[C@@H](Cc2ccc(O)cc2)C(=O)N(C)[C@H](CCC(=O)O)C(=O)N[C@@H](Cc2c[nH]c3ccccc23)C(=O)N[C@@H](Cc2ccc(O)cc2)C(=O)N[C@@H](CCCCN)C(=O)N[C@H](C(=O)NCC(N)=O)CSCC(=O)N[C@@H](Cc2ccccc2)C(=O)N(C)[C@@H](Cc2ccccc2)C(=O)N1C [Example 3595] ({CH2CO}-F[NMeF][NMeNle][d(cisHyp)][dD](NHTrityl)V[NMeF]Y[dNMeE]WYKCG-NH2; thioether N-13),,,,991 nM,123 nM
CCCC[C@H]1C(=O)N(C)[C@@H](CCCC)C(=O)N[C@@H](CC(=O)O)C(=O)N[C@H](C(=O)NCC(N)=O)CSCC(=O)N[C@@H](Cc2ccc(O)cc2)C(=O)N(C)[C@@H](C)C(=O)N[C@@H](CC(N)=O)C(=O)N2CCC[C@H]2C(=O)N[C@@H](Cc2c[nH]cn2)C(=O)N[C@@H](CCC(N)=O)C(=O)N2C[C@H](O)C[C@H]2C(=O)N[C@@H](Cc2c[nH]c3ccccc23)C(=O)N[C@@H](CO)C(=O)N[C@@H](Cc2c[nH]c3ccccc23)C(=O)N1C [Example 5103] ({CH2CO}-Y[NMeA]NPHQ[Hyp]WSW[NMeNle][NMeNle]DCG-NH2; thioether N-14),6.76 to 30.3 nM,4.78 to 72.9 nM,,,
CCCC[C@H]1C(=O)N(C)[C@@H](CCCC)C(=O)N[C@@H](CCCNC(=N)N)C(=O)N[C@H](C(=O)NCC(N)=O)CSCC(=O)N[C@@H](Cc2ccccc2C)C(=O)N(C)[C@@H](C)C(=O)N[C@@H](CC(N)=O)C(=O)N2CCC[C@H]2C(=O)N[C@@H](Cc2cnc[nH]2)C(=O)N[C@@H](CC(C)C)C(=O)N(C)CC(=O)N[C@@H](Cc2c[nH]c3ccccc23)C(=O)N[C@@H](CO)C(=O)N[C@@H](Cc2c[nH]c3ccccc23)C(=O)N1C [Example 1106] ({CH2CO}-[Phe(2-Me)][NMeA]NPHL[Sar]WSW[NMeNle][NMeNle]RCG-NH2; thioether N-14),6.76 to 30.3 nM,,4.78 to 72.9 nM,,
CCCC[C@H]1C(=O)N(C)[C@@H](CCCC)C(=O)N[C@@H](CCC(=O)O)C(=O)N[C@H](C(=O)NCC(N)=O)CSCC(=O)N[C@@H](Cc2ccc(O)cc2)C(=O)N(C)[C@@H](C)C(=O)N[C@@H](CC(=O)O)C(=O)N2CCC[C@H]2C(=O)N[C@@H](Cc2c[nH]cn2)C(=O)N[C@@H](CCC(N)=O)C(=O)N2C[C@H](O)C[C@H]2C(=O)N[C@@H](Cc2c[nH]c3ccccc23)C(=O)N[C@@H](CO)C(=O)N[C@@H](Cc2c[nH]c3ccccc23)C(=O)N1C [Example 5088] ({CH2CO}-Y[NMeA]DPHQ[Hyp]WSW[NMeNle][NMeNle]ECG-NH2; thioether N-14),0.385 to 6.74 nM,4.78 to 72.9 nM,,,
CCCC[C@H]1C(=O)N(C)CC(=O)N[C@@H](CC(N)=O)C(=O)N[C@@H](C(C)C)C(=O)N(C)[C@@H](Cc2ccccc2)C(=O)N[C@@H](Cc2ccc(O)cc2)C(=O)N(C)CC(=O)N[C@@H](Cc2c[nH]c3ccccc23)C(=O)N[C@@H](Cc2ccc(O)cc2)C(=O)N[C@@H](CCCN)C(=O)N[C@H](C(=O)NCC(N)=O)CSCC(=O)N[C@@H](Cc2ccccc2)C(=O)N(C)[C@@H](Cc2ccc3ccccc3c2)C(=O)N1C [Example 3603] ({CH2CO}-F[NMe2Nal][NMeNle][Sar]NV[NMeF]Y[Sar]WY[Orn]CG-NH2; thioether N-13),6.76 to 30.3 nM,4.78 to 72.9 nM,,,
